Patent publication US11241441B2, “Formulations of lixivaptan for the treatment of polycystic disease” (PALLADIO BIOSCIENCES, INC., priority 2017, dated 2022)
Read-outs that look alike come from different tables or passages of the source.

How the values were obtained:
PCK rats = assay: In vivo study of the effects of lixivaptan on PCK rats; parameters: species or system rat; conditions: for % kidney weight/body weight: both genders
Experimental: A study was performed that examined the effect of lixivaptan (0.5% or 1% w/w lixivaptan in ground rodent chow) on bodyweight, kidney weight, kidney cAMP, urine output, and serum electrolyte concentration in PCK rats, an orthologous animal model of Autosomal Recessive PKD that develops a phenotype reminiscent of ADPKD.
Experimental animals and study design. PCK rats were divided into control and treatment groups at four weeks of age (n=59, ˜10 animals per treatment group and gender). Lixivaptan was dissolved in DMSO and added to ground rodent chow (Regrind Labdiet 5053) at 0.5% or 1.0% concentration (w/w) by homogenous mixing, whereas control animals received the same diet without lixivaptan. Animals were exposed to control- or lixivaptan-diet for eight weeks and were sacrificed at twelve weeks of age.
Experimental Protocol. […] At the end of the dosing period, the animals were weighed and anesthetized with ketamine 90 mg/kg and xylazine 10 mg/kg, IP. Blood samples were obtained by cardiac puncture for determination of plasma electrolytes, creatinine and plasma urea levels. The right kidney and part of the liver were placed into pre-weighed vials containing 10% formaldehyde in phosphate buffer (pH 7.4). The tissues were embedded in paraffin for histological studies. The left kidneys were immediately frozen in liquid nitrogen for determination of cAMP.
Statistical Analysis. Comparisons between groups were analyzed using one-way or two-way analysis of variance (ANOVA) with least significant difference comparisons of the means or student's t-test as appropriate. Data were expressed as means±SD.

[1] = Single 100 mg oral dose study in ESRD and normal renal function subjects: pharmacokinetics and tolerability; format: in vivo, human; conditions: for AUC(0-inf) / AUC(0-t) / Cmax / Vd/F / half-life: po, 100 mg; for Vd/F: read-out: VZ/F Mean; for half-life: read-out: t1/2 Median (converted)
Experimental: A clinical study was undertaken to determine the pharmacokinetics (PK) of lixivaptan in renally impaired subjects. In this study, the PK of lixivaptan following a single 100 mg oral dose of lixivaptan was evaluated in subjects with end-stage renal disease (ESRD) and control subjects with normal renal function. Pharmacodynamic (PD) evaluations, including vasopressin concentration, serum sodium concentration, urine volume, and urine osmolality were assessed. Overall total lixivaptan exposure was, on average, 32 and 31% lower in ESRD subjects compared to subjects with normal renal function, as assessed by AUC0-∞ and AUC0-t, respectively. Similarly, peak total lixivaptan concentrations were, on average, 31% lower in subjects with ESRD.

[2] = Clinical observation of ALT elevations, 400 mg BID for 7 days; format: in vivo, human; conditions: 67 individuals
[3] = PCK rats, 0.5% lixivaptan, compared to control
[4] = PCK rats, 0.5% lixivaptan, compared to control, p=0.08
[5] = human, in vivo, single 100 mg oral dose, ESRD
[6] = human, in vivo, single 100 mg oral dose, Normal
[7] = single 100 mg oral dose, Normal

Structure (SMILES): Cc1ccc(F)cc1C(=O)Nc1ccc(C(=O)N2Cc3cccn3Cc3ccccc32)c(Cl)c1 [Lixivaptan, 5-fluoro-2-methyl-N-[4-(5H-pyrrolo[2,1-C] [1,4]benzodiazepin-10(11H)-ylcarbonyl)-3-chlorophenyl]benzamide]
- 24 hr urine week 7 (PCK rats; PCK rats F, 0.5% Lixivaptan): 33.5 ± 8.6 mL
- 24 hr urine week 10 (PCK rats; PCK rats F, 0.5% Lixivaptan): 47.7 ± 16.8 mL
- % Kidney/Body Weight (PCK rats; PCK rats F, 0.5% Lixivaptan): 1.11 ± 0.10 %
- % Liver/Body Weight (PCK rats; PCK rats F, 0.5% Lixivaptan): 5.72 ± 0.42%
- Kidney Cyst Score (PCK rats; PCK rats F, 0.5% Lixivaptan): 7.1 ± 4.2 %
- Kidney Fibrosis Score (PCK rats; PCK rats F, 0.5% Lixivaptan): 2.0 ± 1.1%
- Liver Cyst Score (PCK rats; PCK rats F, 0.5% Lixivaptan): 3.7 ± 0.8%
- Liver Fibrois Score (PCK rats; PCK rats F, 0.5% Lixivaptan): 2.7 ± 0.3%
- Liver Weight (PCK rats; PCK rats F, 0.5% Lixivaptan): 14.5 ± 1.6 g
- Plasma Creatinine (PCK rats; PCK rats F, 0.5% Lixivaptan): 0.64 ± 0.08 mg/dL
- Plasma Sodium (PCK rats; PCK rats F, 0.5% Lixivaptan): 145 ± 2 mEq/L
- Plasma Urea (PCK rats; PCK rats F, 0.5% Lixivaptan): 32.3 ± 3.9 mg/dL
- Total Kidney Weight (PCK rats; PCK rats F, 0.5% Lixivaptan): 2.82 ± 0.33 g
- 24 hr urine week 7 (PCK rats; PCK rats F, 1.0% Lixivaptan): 39.7 ± 14.2 mL
- 24 hr urine week 10 (PCK rats; PCK rats F, 1.0% Lixivaptan): 54.8 ± 19.3 mL
- % Kidney/Body Weight (PCK rats; PCK rats F, 1.0% Lixivaptan): 1.75 ± 0.99%
- % Liver/Body Weight (PCK rats; PCK rats F, 1.0% Lixivaptan): 7.11 ± 2.61%
- Kidney Cyst Score (PCK rats; PCK rats F, 1.0% Lixivaptan): 11.9 ± 3.1%
- Kidney Fibrosis Score (PCK rats; PCK rats F, 1.0% Lixivaptan): 2.1 ± 0.8%
- Liver Cyst Score (PCK rats; PCK rats F, 1.0% Lixivaptan): 6.2 ± 2.7%
- Liver Fibrois Score (PCK rats; PCK rats F, 1.0% Lixivaptan): 4.1 ± 1.4%
- Liver Weight (PCK rats; PCK rats F, 1.0% Lixivaptan): 16.8 ± 6.7 g
- Plasma Creatinine (PCK rats; PCK rats F, 1.0% Lixivaptan): 0.68 ± 0.06 mg/dL
- Plasma Sodium (PCK rats; PCK rats F, 1.0% Lixivaptan): 143 ± 3 mEq/L
- Plasma Urea (PCK rats; PCK rats F, 1.0% Lixivaptan): 37.7 ± 10.5 mg/dL
- Total Kidney Weight (PCK rats; PCK rats F, 1.0% Lixivaptan): 4.14 ± 2.46 g
- 24 hr urine week 7 (PCK rats; PCK rats M, 0.5% Lixivaptan): 45.5 ± 9.1 mL
- 24 hr urine week 10 (PCK rats; PCK rats M, 0.5% Lixivaptan): 53.5 ± 14.3 mL
- % Kidney/Body Weight (PCK rats; PCK rats M, 0.5% Lixivaptan): 1.37 ± 0.45%
- % Liver/Body Weight (PCK rats; PCK rats M, 0.5% Lixivaptan): 5.49 ± 0.44%
- Kidney Cyst Score (PCK rats; PCK rats M, 0.5% Lixivaptan): 7.7 ± 1.7 %
- Kidney Fibrosis Score (PCK rats; PCK rats M, 0.5% Lixivaptan): 1.8 ± 1.2%
- Liver Cyst Score (PCK rats; PCK rats M, 0.5% Lixivaptan): 3.2 ± 1.6%
- Liver Fibrois Score (PCK rats; PCK rats M, 0.5% Lixivaptan): 3.1 ± 1.1%
- Liver Weight (PCK rats; PCK rats M, 0.5% Lixivaptan): 23.8 ± 2.3 g
- Plasma Creatinine (PCK rats; PCK rats M, 0.5% Lixivaptan): 0.63 ± 0.07 mg/dL
- Plasma Sodium (PCK rats; PCK rats M, 0.5% Lixivaptan): 147 ± 4 mEq/L
- Plasma Urea (PCK rats; PCK rats M, 0.5% Lixivaptan): 32.2 ± 5.8 mg/dL
- Total Kidney Weight (PCK rats; PCK rats M, 0.5% Lixivaptan): 5.97 ± 2.04 g
- 24 hr urine week 7 (PCK rats; PCK rats M, 1.0% Lixivaptan): 53.9 ± 7.4 mL
- 24 hr urine week 10 (PCK rats; PCK rats M, 1.0% Lixivaptan): 63.7 ± 10.1 mL
- % Kidney/Body Weight (PCK rats; PCK rats M, 1.0% Lixivaptan): 1.47 ± 0.46%
- % Liver/Body Weight (PCK rats; PCK rats M, 1.0% Lixivaptan): 5.60 ± 0.61%
- Kidney Cyst Score (PCK rats; PCK rats M, 1.0% Lixivaptan): 12.0 ± 3.7 %
- Kidney Fibrosis Score (PCK rats; PCK rats M, 1.0% Lixivaptan): 2.9 ± 1.3%
- Liver Cyst Score (PCK rats; PCK rats M, 1.0% Lixivaptan): 5.8 ± 1.3%
- Liver Fibrois Score (PCK rats; PCK rats M, 1.0% Lixivaptan): 4.2 ± 2.0%
- Liver Weight (PCK rats; PCK rats M, 1.0% Lixivaptan): 22.5 ± 2.7 g
- Plasma Creatinine (PCK rats; PCK rats M, 1.0% Lixivaptan): 0.67 ± 0.04 mg/dL
- Plasma Sodium (PCK rats; PCK rats M, 1.0% Lixivaptan): 147 ± 1 mEq/L
- Plasma Urea (PCK rats; PCK rats M, 1.0% Lixivaptan): 32.3 ± 5.0 mg/dL
- Total Kidney Weight (PCK rats; PCK rats M, 1.0% Lixivaptan): 5.92 ± 1.95 g
- improvement in cystic phenotype compared to control (PCK rats; PCK rats, 0.5% lixivaptan): 54%
- increase in serum sodium (PCK rats; PCK rats, 0.5% lixivaptan): 1.6%
- reduction in kidney weight as a percentage of body weight (relative kidney size) (PCK rats; [3]): 26%
- reduction in liver cyst score (PCK rats; [3]): 39%
- reduction in liver fibrosis score (PCK rats; [4]): 20.6%
- reduction in ratio of liver weight vs. body weight (PCK rats; [4]): 5.2%
- beneficial effect on kidney fibrosis score (PCK rats; PCK rats, 0.5% lixivaptan, p=0.12): 30%
- increase in 24 h urine output (PCK rats; PCK rats, 0.5% lixivaptan, study week 3 (rats at 7 weeks of age)): 175%
- increase in 24 h urine output (PCK rats; PCK rats, 0.5% lixivaptan, study week 6 (rats at 10 weeks of age)): 189%
- effect on liver pathology (PCK rats; PCK rats, 1.0% lixivaptan): did not separate from control
- improvement in cystic phenotype compared to control (PCK rats; PCK rats, 1.0% lixivaptan): 25%
- increase in urine output (PCK rats; PCK rats, 1.0% lixivaptan, Study week 3): 223%
- increase in urine output (PCK rats; PCK rats, 1.0% lixivaptan, Study week 6): 237%
- % kidney weight/body weight (PCK rats; PCK rats, 0.5% lixivaptan): 1.2%
- % kidney weight/body weight (PCK rats; PCK rats, 1.0% lixivaptan, all animals): 1.6%
- % kidney weight/body weight (PCK rats; PCK rats, 1.0% lixivaptan, three outliers removed): 1.3%
- reduction in serum creatinine (PCK rats; PCK rats, compared to control): 13.2%
- tolerability of single doses ([1]; both groups (normal, ESRD)): well tolerated
- AUC(0-inf) [1, 5]: 856 ng·h/mL
- AUC(0-t) [1, 5]: 809 ng·h/mL
- Cmax [1, 5]: 238 ng/mL
- Vd/F [1, 5]: 2740 L
- half-life [1, 5]: 13.3 h
- AUC(0-t) [1, 6]: 1200 ng·h/mL
- Cmax [1, 6]: 383 ng/mL
- AUC(0-inf) ([1]; human, in vivo, single 100 mg oral dose, Normal renal function): 1290 ng·h/mL
- Vd/F [1, 6]: 1750 L
- half-life [1, 6]: 12 h
- Tmax ([1]; human, in vivo, single 100 mg oral dose, Normal, read-out: tmax Median): 1 h
- peak total lixivaptan concentrations lower in subjects with ESRD ([1]; single 100 mg oral dose): 31%
- total lixivaptan exposure (AUC0-t) lower in ESRD subjects compared to normal renal function ([1]; single 100 mg oral dose): 31%
- total lixivaptan exposure (AUC0-∞) lower in ESRD subjects compared to normal renal function ([1]; single 100 mg oral dose): 32%
- CL/F Mean ([1]; single 100 mg oral dose, ESRD): 137 L/h
- Lambdaz Median ([1]; single 100 mg oral dose, ESRD): 0.05752 h⁻¹
- CL/F Mean [1, 7]: 94.2 L/h
- Lambdaz Median [1, 7]: 0.06035 h⁻¹
- ALT elevations in treated individuals [2]: no ALT elevations
